Assay results from US6479487B1, “6, 9-disubstituted 2-[trans-(4-aminocyclohexyl)amino] purines” (Aventis Pharmaceuticals Inc., priority 1998, dated 2002).
pIC50: −log10 of the molar value. Several values for one entry are separate records, joined by “and”; a condition that tells them apart may be missing. Identical values can stand only once. Counter-ions that a name gives are not always drawn. Like-named read-outs stand apart in the source and are kept apart here.

Tests used:
[1] = target: T1, cdk2/cyclin E (Homo sapiens, UniProt P24941); experiment: Cyclin-Dependent Kinase 2 Assay (cdk2/cyclin E, GST-Rb substrate); type: biochemical; settings: recombinant cdk2/cyclin E, 10 μM ATP, 30 min at 30° C., several values in a cell = separate determinations, read-out: CDK-2 Inhibition IC50
T1 construct: made in house; host or cells: insect cells (baculovirus co-infection)
Procedure: Substrate: GST-Rb as described above for cdk4/cyclin D1
Assay conditions for cdk2/cyclin E were identical to those for cdk4/cyclin D1 including the substrate. The concentration of recombinant cdk2/cyclin E in the assay was 0.1 μg per 100 μl assay. Incubation was for 30 min at 30° C.

[2] = test system: A549; experiment: In vitro tumor cell proliferation, A549; type: cell-based, human; settings: many values given with an undefined *, read-out: In vitro Tumor Cell Proliferation (IC50, μM) Lung A549
Procedure: (§1) The proliferation of tumor cells was measured using a sulforhodamine B assay as described in Skehan, P., et al., J. Natl. Cancer Inst. […] Tumor cells were harvested with trypsin-EDTA, cells that excluded trypan blue were counted, added to 96-well plates and incubated overnight at 37° C. Drug was added to the wells following dilution in culture medium. Three days later, the medium was removed and replenished with medium containing fresh drug and incubated an additional 4 days. The cells were then fixed with 0.1 ml 10% trichloroacetic acid for 60 min at 4° C. The plates were rinsed five times with tap water, air-dried and stained for 30 min with 0.4% sulforhodamine B in 1% acetic acid and air-dried.
(§2) Alternatively, the CyQUANT cell proliferation assay was used to quantitate cell proliferation.
(§3) Alternatively, the CyQUANT cell proliferation assay was used to quantify tumor cell proliferation. Tumor cells were harvested with trypsin-EDTA, cells that excluded trypan blue were counted, added to 96-well plates and incubated overnight at 37° C. Drug was added to the wells following dilution in culture medium. Three days later the medium was removed and the plates frozen at −80° C. for at least 30 minutes.

[3] = test system: HT-29; experiment: In vitro tumor cell proliferation, HT-29; type: cell-based, human; settings: many values given with an undefined *, read-out: In vitro Tumor Cell Proliferation (IC50, μM) Colon HT-29
Procedure: as §1, §2, §3
HT-29 is a human colon adenocarcinoma, moderately well-differentiated grade II (HTB 38);

[4] = target: T2, cdk4/cyclin D1 (Homo sapiens, UniProt P11802); experiment: Cyclin-dependent Kinase 4 Assay (cdk4/cyclin D1, GST-Rb substrate); type: biochemical; settings: cdk4/cyclin D1 insect cell lysate, 10 μM ATP, 30 min at 37° C., several values = separate determinations, read-out: CDK4 Inhibition IC50
T2 construct: made in house; host or cells: Sf9 insect cells (Bac-to-Bac baculovirus, pFastBac)
Procedure: The IC50 values for cdk4 inhibition were by the following method:
The transformed bacteria were grown overnight to saturation, then diluted in YT broth and incubated at 37° C. for 2 h. The protein was induced by incubation with 0.1 mM isopropylthioglycoside for 3 h. Following sedimentation by centrifugation, the cells were lysed by sonication in STE buffer ([…] NaCl, 10 mM Tris, pH 8.0, 1 mM EDTA) containing 10% sarkosyl. Particulate matter was removed by centrifugation and the lysate was incubated with glutathione-Sepharose at 4° C. The beads were washed with kinase buffer and then quantitation of Coomassie blue-stained proteins separated by SDS-PAGE was performed using a protein standard of known concentration.
The cDNA for human cyclin D1 was cloned by RT PCR using […] from MCF-7 cells. […] Bacmid DNA was used to transfect Sf9 insect cells to produce recombinant virus. Following plaque purification of the virus, the viral preparations were amplified until high titer stocks were acheived.
Lysates were prepared by lysis of Sf9 cells coinfected with cdk4 and cyclin D1 in 50 mM HEPES, pH 7.5, 10 mM MgCl2, 1 mM DTT, 0.1 mM phenylmethylsulfonyl fluoride, 5 μg/ml aprotinin, and 5 μg/ml leupeptin using a PARR bomb under 500 p.s.i nitrogen pressure for 5 min at 4° C. Insoluble material was sedimented at 10,000×g for 20 min at 4° C. Glycerol was added to the supernatant to 10% and stored at −80° C. in aliquots.
Pre-wet Millipore Multiscreen 96-well filter plates (0.65 μm Durapore filters) with 200 μl kinase buffer (50 mM HEPES, pH 7.5, 10 mM MgCl2, 1 mM EGTA). GST-Rb (0.5 μg) bound to glutathione-Sepharose beads is added in 50 μl per well and the solution removed by application of vacuum. […] Add 0.1 μg cdk4/cyclin D1 (insect cell lysate) to initiate assay. Incubate 30 min at 37° C. Terminate reaction by filtration on Millipore Vacuum Manifold. Wash four times with TNEN (20 mM Tris, pH 8.0, 100 mM Na Cl, 1 mM EDTA, 0.5% nonidet P-40). After drying the plates at room temperature, the filter plates were placed in adapter plates (Packard) and 40 μl of Microscint-O® (Packard) was added to each well. Top Seal A film was used to cover the plates before counting in a Top Count Scintillation Counter.

[5] = test system: MDA-MB-435; experiment: In vitro tumor cell proliferation, MDA-MB-435; type: cell-based; settings: values given with an undefined *, read-out: In vitro Tumor Cell Proliferation (IC50, μM) Breast MDA-MB-435
Procedure: as §1, §2, §3

[6] = test system: PC-3; experiment: In vitro tumor cell proliferation, PC-3; type: cell-based, human; settings: many values given with an undefined *, read-out: In vitro Tumor Cell Proliferation (IC50, μM) Prostate PC-3
Procedure: as §1, §2, §3

[7] = test system: DMS-114; experiment: In vitro tumor cell proliferation, DMS-114; type: cell-based, human; settings: many values given with an undefined *, read-out: In vitro Tumor Cell Proliferation (IC50, μM) Lung DMS-114
Procedure: DMS-1 14: human small cell lung carcinoma;
as §1, §2, §3

[8] = test system: DU145; experiment: In vitro tumor cell proliferation, DU145; type: cell-based, human; settings: many values given with an undefined *, read-out: In vitro Tumor Cell Proliferation (IC50, μM) Prostate DU145
Procedure: as §1, §2, §3

[9] = test system: Colo-205; experiment: In vitro tumor cell proliferation, Colo-205; type: cell-based; settings: values given with an undefined *, read-out: In vitro Tumor Cell Proliferation (IC50, μM) Colon Colo-205
Procedure: as §1, §2, §3

[10] = test system: MDA-MB-231; experiment: In vitro tumor cell proliferation, MDA-MB-231; type: cell-based, human; settings: sulforhodamine B or CyQUANT assay, many values given with an undefined *, read-out: In vitro Tumor Cell Proliferation (IC50, μM) Breast MDA-MB-231
Procedure: as §1, §2, §3
MDA-MB-23 1 is a human breast adenocarcinoma, hormone-independent (HTB 26);

[11] = Homo sapiens, MDA-MB-435, MDA-MB-435
[12] = Homo sapiens, COLO 205, Colo-205
[13] = Homo sapiens, MDA-MB-231, MDA-MB-231

T2 sequence (P11802 whole entry): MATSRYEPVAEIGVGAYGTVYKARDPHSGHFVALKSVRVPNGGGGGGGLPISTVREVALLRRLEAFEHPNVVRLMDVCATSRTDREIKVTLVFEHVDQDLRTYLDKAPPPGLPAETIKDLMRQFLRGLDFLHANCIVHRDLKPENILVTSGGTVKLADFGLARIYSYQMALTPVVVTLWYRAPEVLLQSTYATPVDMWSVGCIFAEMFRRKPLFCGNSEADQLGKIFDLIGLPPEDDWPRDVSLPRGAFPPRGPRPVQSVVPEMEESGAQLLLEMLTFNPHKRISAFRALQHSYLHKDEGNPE
T2 sequence (P24385 whole entry partner): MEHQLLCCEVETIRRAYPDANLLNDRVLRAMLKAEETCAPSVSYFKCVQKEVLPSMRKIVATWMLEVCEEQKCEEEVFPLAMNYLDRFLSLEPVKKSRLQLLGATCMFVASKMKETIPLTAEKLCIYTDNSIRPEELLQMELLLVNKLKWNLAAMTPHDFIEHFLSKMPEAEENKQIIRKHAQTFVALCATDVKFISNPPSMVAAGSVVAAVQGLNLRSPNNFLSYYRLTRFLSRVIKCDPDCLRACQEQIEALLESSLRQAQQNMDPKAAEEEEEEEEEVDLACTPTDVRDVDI

Row | SMILES | pIC50 [1] | IC50 ([2]; Homo sapiens, A549, A549) [µM] | IC50 ([3]; HT-29, dihydrochloride) | IC50 ([3]; Homo sapiens, HT-29, HT-29) [µM] | pIC50 [4] | IC50 [5, 11] [µM] | IC50 ([6]; Homo sapiens, PC-3, PC-3) [µM] | IC50 ([7]; DMS-114, dihydrochloride) [µM] | IC50 ([7]; Homo sapiens, DMS-114, DMS-114) [µM] | IC50 ([8]; Homo sapiens, DU-145, DU145) [µM] | IC50 [9, 12] [µM] | IC50 [10, 13] [µM] | further results
1 | COc1ccc(CCNc2nc(N[C@H]3CC[C@H](N)CC3)nc3c2ncn3C2CCCC2)cc1 [Example 14, 2-[Trans-(4-aminocyclohexyl)amino]-6-[2-(4-methoxyphenyl)ethylamino]-9-cyclopentylpurine dihydrochloride] | 7.00 | 1.4 | – | 2.7 | 5.82 | – | 2.3 | – | 1.3 | 2.8 | 2.4 | 3 | –
2 | COCCNc1nc(N[C@H]2CC[C@H](N)CC2)nc2c1ncn2C1CCCC1 [Example 16, 2-[Trans-(4-aminocyclohexyl)amino]-6-(2-methoxyethylamino)-9-cyclopentylpurine dihydrochloride] | 7.26 and 7.52 | – | 6.3 µM | 6.4 | 6.64 and 6.55 | 9.2 | – | 4.4 | 4.8 | 2.5 | – | 4.7 | IC50 ([5]; MDA-MB-435, dihydrochloride): 7.6 µM; IC50 ([8]; DU145, dihydrochloride): 3.3 µM; IC50 ([10]; MDA-MB-231, dihydrochloride): 4.1 µM
3 | CCN(CC)CCCNc1nc(N[C@H]2CC[C@H](N)CC2)nc2c1ncn2C1CCCC1 [Example 18, 2-[Trans-(4-aminocyclohexyl)amino]-6-[(3-diethylamino)propylamino]-9-cyclopentylpurine dihydrochloride] | 6.00 | – | – | – | 5.85 | – | – | – | – | – | – | – | –
4 | COc1cccc(CNc2nc(N[C@H]3CC[C@H](N)CC3)nc3c2ncn3C(C)C)c1OC [Example 30, 2-[Trans-(4-aminocyclohexyl)amino]-6-[(2.3-dimethoxybenzyl)amino]-9-(2-propyl)purine dihydrochloride] | 5.85 | – | – | – | 5.62 | – | – | – | – | – | – | – | –

Continued, in another order:

Row | pIC50 [1] | IC50 ([2]; Homo sapiens, A549, A549) [µM] | IC50 ([3]; HT-29, dihydrochloride) | IC50 ([3]; Homo sapiens, HT-29, HT-29) [µM] | pIC50 [4] | IC50 [5, 11] [µM] | IC50 ([6]; Homo sapiens, PC-3, PC-3) [µM] | IC50 ([7]; DMS-114, dihydrochloride) [µM] | IC50 ([7]; Homo sapiens, DMS-114, DMS-114) [µM] | IC50 ([8]; Homo sapiens, DU-145, DU145) [µM] | IC50 [9, 12] [µM] | IC50 [10, 13] [µM] | SMILES | further results
5 | 6.92 and 7.00 | 1.7 | 2.5 µM and 4.1 µM | 2.4 | 5.89 and 6.00 | 8 | – | – | – | – | – | – | N[C@H]1CC[C@H](Nc2nc(NNc3ccccc3Cl)c3ncn(C4CCCC4)c3n2)CC1 [Example 2, 2-[Trans-(4-aminocyclohexyl)amino]-6-(2-chlorophenylhydrazino)-9-cyclopentylpurine dihydrochloride] | IC50 ([2]; A549, dihydrochloride): 2.2 µM and 1.8 µM; IC50 ([5]; MDA-MB-435, dihydrochloride): 8.2 µM
6 | 7.80 and 7.89 | 1.3 | 1.7 µM | 1.6 | 5.80 | – | 1.1 | 1.4 | 1.5 | 1.3 | 1.3 | – | N[C@H]1CC[C@H](Nc2nc(NCC3CCC(CO)CC3)c3ncn(C4CCCC4)c3n2)CC1 (stereo partly drawn) [Example 10, 2-[Trans-(4-aminocyclohexyl)amino]-6-[4-(hydroxymethyl)cyclohexanemethylamino]-9-cyclopentylpurine dihydrochloride] | IC50 ([6]; PC-3, dihydrochloride): 1 µM; IC50 ([2]; A549, dihydrochloride): 2.6 µM; IC50 ([8]; DU145, dihydrochloride): 2.6 µM; IC50 ([9]; Colo-205, dihydrochloride): 2.6 µM
7 | 7.80 | – | – | 2.1 | 7.40 | – | 1.4 | 1.9 | 1.8 | – | 1.6 | – | COCCOCCCNc1nc(N[C@H]2CC[C@H](N)CC2)nc2c1ncn2C1CCCC1 [Example 15, 2-[Trans-(4-aminocyclohexyl)amino]-6-[3-(2-methoxyethoxy)propylamino]-9-cyclopentylpurine dihydrochloride] | IC50 ([6]; PC-3, dihydrochloride): 1.2 µM; IC50 ([9]; Colo-205, dihydrochloride): 1.7 µM
8 | 6.40 | 1.6 | – | 2.4 | 7.00 | 3.1 | 2.3 | – | 2.4 | 1.9 | – | 2.1 | N[C@H]1CC[C@H](Nc2nc(NCCNc3ccccc3)c3ncn(C4CCCC4)c3n2)CC1 [Example 31, 2-[Trans-(4-aminocyclohexyl)amino]-6-[2-(phenylamino~ethylamino]-9-cyclopentylpurinetrihydrochloride] | IC50 ([6]; PC-3, trihydrochloride): 1.9 µM; IC50 ([2]; A549, trihydrochloride): 2.1 µM; IC50 ([7]; DMS-114, trihydrochloride): 1.8 µM; IC50 ([3]; HT-29, trihydrochloride): 2.5 µM; IC50 ([5]; MDA-MB-435, trihydrochloride): 2.6 µM; IC50 ([8]; DU145, trihydrochloride): 1.8 µM; IC50 ([10]; MDA-MB-231, trihydrochloride): 2.4 µM
